The text below walks through data of US20160037775A1, “ACTIVE INGREDIENT COMBINATIONS HAVING INSECTICIDAL AND ACARICIDAL PROPERTIES” (priority 2010, published 2016).

Holding throughout (format): in vivo
One assay concerns Tetranychus urticae. Description: Tetranychus test (OP-resistant/spray treatment). The note with it: for Kill rate in % after 6 d / pest or weed control at 4 g/ha: after 6 d. An excerpt:
(§1) The expected action for a given combination of two active ingredients can be calculated according to S. R. Colby, Weeds 15 (1967), 20-22 as follows:
(§2) • X is the kill rate, expressed in % of the untreated control, in the case of use of active ingredient A in an application rate of m g/ha or in a concentration of m ppm, • Y is the kill rate, expressed in % of the untreated control, in the case of use of active ingredient B in an application rate of n g/ha or in a concentration of n ppm, and • E is the kill rate, expressed in % of the untreated control, in the case of use of active ingredients A and B in application rates of m and n g/ha or in a concentration of m and n ppm, then
(§3) If the actual kill rate is greater than that calculated, the kill rate of the combination is superadditive, which means that a synergistic effect is present. In this case, the kill rate actually observed must be greater than the value calculated from the above formula for the expected kill rate (E).
(§4) • 78 parts by weight of acetone • 1.5 parts by weight of dimethylformamide Emulsifier: 0.5 part by weight of alkylaryl polyglycol ether
(§5) To produce an appropriate active ingredient formulation, 1 part by weight of active ingredient is mixed with the stated amounts of solvent and emulsifier, and the concentrate is diluted with emulsifier-containing water to the desired concentration.
Discs of bean leaves (Phaseolus vulgaris) infested by all stages of the two-spotted spider mite (Tetranychus urticae) are sprayed with an active ingredient formulation of the desired concentration.
After the desired period of time, the effect in % is determined. 100% means that all of the spider mites have been killed; 0% means that none of the spider mites have been killed.

A further assay concerns Spodoptera frugiperda. Description: whole plant or invertebrate.
Source text: as §3, §4, §5
After the desired time, the kill in % is determined. 100% means that all caterpillars have been killed; 0% means that none of the caterpillars have been killed. The kill rates determined are entered into Colby's formula.

For a further assay, the system named is Phaedon cochleariae. Description: whole plant or invertebrate. The following applies: for pest or weed control at 0.8 g/ha / pest or weed control at 4 g/ha / pest or weed control at 0.16 g/ha: Phaedon cochleariae, 144 h, read-out: Kill rate in % after 6 d; for Kill rate in % after 6 d / pest or weed control at 0.8 g/ha / pest or weed control at 4 g/ha / pest or weed control at 0.16 g/ha: after 6 d.
Source text: as §1, §2, §3, §4, §5
Cabbage leaves (Brassica oleracea) are treated by spraying with the active ingredient formulation of the desired concentration and populated with larvae of the mustard beetle (Phaedon cochleariae) while the leaves are still moist.
After the desired period of time, the kill rate in % is determined. 100% means that all beetle larvae have been killed; 0% means that none of the beetle larvae have been killed. The kill rates determined are entered into Colby's formula.

The next assay has as its system Myzus persicae. Description: whole plant or invertebrate.
Source text: as §3, §4, §5
After the desired time, the kill in % is determined. 100% means that all aphids have been killed; 0% means that no aphids have been killed. The kill rates determined are entered into Colby's formula.

Where [1] appears, read: Spodoptera frugiperda, 144 h, 4 g/ha, after 6 d, read-out: Kill rate in % after 6 d.
The mark [2] stands for this setting: Myzus persicae, 144 h, 4 g/ha, after 6 d, read-out: Kill rate in % after 6 d.
Setting [3] is: Spodoptera frugiperda, 144 h, 0.8 g/ha, after 6 d, read-out: Kill rate in % after 6 d.
[4] abbreviates: Tetranychus urticae, 144 h, 4 g/ha, applied individually, read-out: Kill rate in % after 6 d.
The mark [5] stands for this setting: Myzus persicae, 144 h, 0.16 g/ha, after 6 d, read-out: Kill rate in % after 6 d.
[6] abbreviates: Spodoptera frugiperda, 144 h, 0.032 g/ha, after 6 d, read-out: Kill rate in % after 6 d.

Like-named read-outs stand apart in the source and are kept apart here.

As for spinosad, the “Kill rate in % after 2 d” value in the assay with Tetranychus urticae (20 g/ha, after 2 d, applied individually) amounted to 20%. Further, in the assay with Spodoptera frugiperda (0.16 g/ha, after 6 d), the “Kill rate in % after 6 d” value was found to be 0%.
Regarding `CCC(C)(C)C(=O)OC1=C(c2ccc(Cl)cc2Cl)C(=O)OC12CCCCC2` [spirodiclofen], in the assay on Phaedon cochleariae (4 g/ha), the “Kill rate in % after 6 d” value amounted to 0%. Besides, in the assay with Tetranychus urticae (100 g/ha, after 2 d, applied individually), the “Kill rate in % after 2 d” value was found to be 0%. The “Kill rate in % after 1 d” value in the assay on Myzus persicae (20 g/ha, after 1 d) is listed as 0%; in the assay on Myzus persicae (100 g/ha, after 1 d), 0%.
On to `O=S(=O)(CCC(F)=C(F)F)c1ncc(Cl)s1` [fluensulfone], for which the “Kill rate in % after 2 d” value in the assay on Tetranychus urticae (2000 g/ha, after 2 d, applied individually) is 0%. Moreover, the “Kill rate in % after 6 d” value in the assay on Spodoptera frugiperda (2000 g/ha, after 6 d) is 0%.
Regarding `Cc1cc(C(F)(C(F)(F)F)C(F)(F)F)ccc1NC(=O)c1cccc(I)c1C(=O)NC(C)(C)CS(C)(=O)=O` [flubendiamide], the pest or weed control at 0.8 g/ha in the assay with Phaedon cochleariae worked out at 0%. The pest or weed control at 20 g/ha with Tetranychus urticae (Tetranychus urticae, 48 h, 20 g/ha, after 2 d, applied individually, read-out: Kill rate in % after 2 d) turned out to be 0%.
Consider `Cc1nn(C)c(Oc2ccccc2)c1C=NOCc1ccc(C(=O)OC(C)(C)C)cc1` [fenpyroximate], for which, in the assay with Tetranychus urticae (Tetranychus urticae, 48 h, 0.8 g/ha, after 2 d, applied individually, read-out: Kill rate in % after 2 d), the pest or weed control at 0.8 g/ha is 0%. The “Kill rate in % after 2 d” value in the assay with Spodoptera frugiperda (0.8 g/ha) was 0%.
Take `COC(=O)N(C(=O)N1CO[C@@]2(C(=O)OC)Cc3cc(Cl)ccc3C2=N1)c1ccc(OC(F)(F)F)cc1` [indoxacarb]: the “Kill rate in % after 1 d” value with Myzus persicae (20 g/ha, after 1 d) amounted to 0%. For the same molecule, the “Kill rate in % after 2 d” value in the assay with Spodoptera frugiperda (0.8 g/ha) came out at 50%.
For `Nc1nc(N)nc(NC2CC2)n1` [cyromazine], the pest or weed control at 4 g/ha in the assay with Phaedon cochleariae (4 g/ha) and in the assay with Spodoptera frugiperda (setting [1]) was 0% in each case. The pest or weed control at 100 g/ha in the assay with Myzus persicae (Myzus persicae, 24 h, 100 g/ha, after 1 d, read-out: Kill rate in % after 1 d) was 0%.
Take abamectin: the “Kill rate in % after 6 d” value in the assay on Phaedon cochleariae (0.032 g/ha) is 0%; with Tetranychus urticae (0.0064 g/ha, applied individually) it was 0%; with Tetranychus urticae (0.032 g/ha, applied individually) it was 80%. Also, the “Kill rate in % after 1 d” value in the assay with Myzus persicae (0.16 g/ha, after 1 d) amounted to 0%.
In the case of `COc1cccc(C(=O)NN(C(=O)c2cc(C)cc(C)c2)C(C)(C)C)c1C` [methoxyfenozide], the pest or weed control at 0.8 g/ha in the assay with Phaedon cochleariae and in the assay on Spodoptera frugiperda (setting [3]) was 0% throughout. The pest or weed control at 4 g/ha with Myzus persicae (setting [2]) amounted to 0%.
On to `O=C(NC(=O)c1c(F)cccc1F)Nc1ccc(OC(F)(F)C(F)OC(F)(F)F)c(Cl)c1` (centres unmarked) [novaluron], for which the results for the pest or weed control at 0.8 g/ha in the assay with Phaedon cochleariae and in the assay on Spodoptera frugiperda (setting [3]) were 0% and 67%, respectively.
For `CCCSP(=O)(OCC)Oc1ccc(Br)cc1Cl` (centres unmarked) [profenophos], in the assay with Phaedon cochleariae (4 g/ha), the “Kill rate in % after 2 d” value worked out at 0% and the pest or weed control at 4 g/ha worked out at 0%. For the same molecule, the pest or weed control at 4 g/ha in the assay with Spodoptera frugiperda (setting [1]) worked out at 17%.
As to `CCc1nn(C)c(C(=O)NCc2ccc(C(C)(C)C)cc2)c1Cl` [tebufenpyrad], the pest or weed control at 0.16 g/ha worked out at 0% with Phaedon cochleariae (0.16 g/ha); 0% with Tetranychus urticae (Tetranychus urticae, 48 h, 0.16 g/ha, after 2 d, applied individually, read-out: Kill rate in % after 2 d); 0% with Myzus persicae (setting [5]). The pest or weed control at 4 g/ha with Tetranychus urticae (setting [4]) stood at 40%. Besides, the pest or weed control at 0.8 g/ha in the assay on Myzus persicae (Myzus persicae, 24 h, 0.8 g/ha, after 1 d, read-out: Kill rate in % after 1 d) worked out at 0%.
On to `COCCOC(=O)C(C#N)(C(=O)c1ccccc1C(F)(F)F)c1ccc(C(C)(C)C)cc1` (centres unmarked) [cyflumetofen], for which the results for the pest or weed control at 4 g/ha in the assay on Phaedon cochleariae (4 g/ha) and in the assay with Spodoptera frugiperda (setting [1]) were 0% and 17%, respectively.
Turning to emamectin benzoate, the “Kill rate in % after 6 d” value in the assay with Phaedon cochleariae (0.032 g/ha) is recorded as 0%. In addition, the “Kill rate in % after 2 d” value in the assay on Tetranychus urticae (0.032 g/ha, after 2 d, applied individually) came to 0%. The “Kill rate in % after 1 d” value in the assay on Myzus persicae (0.16 g/ha, after 1 d) is recorded as 0%; with Myzus persicae (0.8 g/ha, after 1 d) it was 0%.
With `O=C(NC(=O)c1c(F)cccc1F)Nc1ccc(Oc2ccc(C(F)(F)F)cc2Cl)cc1F` [flufenoxuron], the pest or weed control at 0.8 g/ha with Myzus persicae (Myzus persicae, 144 h, 0.8 g/ha, after 6 d, read-out: Kill rate in % after 6 d) came out at 0%; in the assay on Spodoptera frugiperda (setting [3]), 0%.
For spinetoram, the “Kill rate in % after 6 d” value in the assay with Phaedon cochleariae (0.16 g/ha) is 0%; with Tetranychus urticae (4 g/ha, applied individually), 20%; in the assay with Myzus persicae (0.8 g/ha, after 6 d) it was 0%. In addition, the “Kill rate in % after 1 d” value in the assay with Myzus persicae (4 g/ha, after 1 d) turned out to be 0%.
Turning to `CNC(=O)c1cc(Cl)cc(C)c1NC(=O)c1cc(Br)nn1-c1ncccc1Cl` [chloranthraniliprole], the pest or weed control at 0.032 g/ha in the assay with Spodoptera frugiperda (setting [6]) came to 50%.
Consider `O=C(NC(=O)c1c(F)cccc1F)Nc1cc(Cl)c(OC(F)(F)C(F)C(F)(F)F)cc1Cl` (centres unmarked) [lufenuron], for which, in the assay on Tetranychus urticae (Tetranychus urticae, 48 h, 100 g/ha, after 2 d, applied individually, read-out: Kill rate in % after 2 d), the pest or weed control at 100 g/ha came to 0%. The pest or weed control at 0.8 g/ha in the assay on Spodoptera frugiperda (setting [3]) was 17%.
As for `CC1(C)[C@H](C(=O)O[C@H](C#N)c2cccc(Oc3ccccc3)c2)[C@@H]1/C=C(\Cl)C(F)(F)F` [L-cyhalothrin], the pest or weed control at 4 g/ha with Tetranychus urticae (setting [4]) is 20%. In addition, the pest or weed control at 0.16 g/ha in the assay on Myzus persicae (Myzus persicae, 24 h, 0.16 g/ha, after 1 d, read-out: Kill rate in % after 1 d) turned out to be 0%. Moreover, the pest or weed control at 0.032 g/ha in the assay on Spodoptera frugiperda (setting [6]) came to 0%.
Turning to `CC1(C)C(C=C(Cl)Cl)C1C(=O)OC(C#N)c1ccc(F)c(Oc2ccccc2)c1` (stereo not drawn) [β-cyfluthrin], in the assay on Phaedon cochleariae (0.032 g/ha), the “Kill rate in % after 2 d” value stood at 0%. For the same molecule, the “Kill rate in % after 1 d” value with Myzus persicae (0.032 g/ha, after 1 d) amounted to 0%; in the assay with Myzus persicae (0.16 g/ha, after 1 d), 70%.
Turning to `CC1(C)[C@H](C(=O)O[C@H](C#N)c2cccc(Oc3ccccc3)c2)[C@@H]1/C=C(\Cl)C(F)(F)F` [gamma-cyhalothrin], the “Kill rate in % after 2 d” value with Tetranychus urticae (0.8 g/ha, after 2 d, applied individually) is given as 0%; in the assay with Spodoptera frugiperda (0.032 g/ha), 17%. Further, the “Kill rate in % after 1 d” value in the assay on Myzus persicae (0.032 g/ha, after 1 d) is reported as 0%.
Turning to `FC(F)(F)c1ccc(OCCCOc2c(Cl)cc(OCC=C(Cl)Cl)cc2Cl)nc1` [pyridalyl], the pest or weed control at 4 g/ha worked out at 0% in the assay on Phaedon cochleariae (4 g/ha); 0% with Myzus persicae (Myzus persicae, 24 h, 4 g/ha, after 1 d, read-out: Kill rate in % after 1 d); 0% with Spodoptera frugiperda (setting [1]).
Consider `CNC(=O)Oc1cccc2ccccc12` [carbaryl], for which the pest or weed control at 500 g/ha with Tetranychus urticae (Tetranychus urticae, 48 h, read-out: Kill rate in % after 2 d) was 10%; in the assay with Tetranychus urticae (Tetranychus urticae, 144 h, read-out: Kill rate in % after 6 d), 20%; in the assay with Myzus persicae (Myzus persicae, 24 h, read-out: Kill rate in % after 1 d), 0%. In addition, the pest or weed control at 4 g/ha with Spodoptera frugiperda (Spodoptera frugiperda, 144 h, read-out: Kill rate in % after 6 d) was 0%.
Take `CCc1ccc(C(=O)NN(C(=O)c2cc(C)cc(C)c2)C(C)(C)C)cc1` [tebufenozide]: the “Kill rate in % after 2 d” value with Phaedon cochleariae (4 g/ha) worked out at 0%. In the assay on Myzus persicae (setting [2]), the pest or weed control at 4 g/ha was 0%. For the same molecule, in the assay with Spodoptera frugiperda (Spodoptera frugiperda, 144 h, 0.16 g/ha, after 6 d, read-out: Kill rate in % after 6 d), the pest or weed control at 0.16 g/ha was 0%.
With `CNC(=O)c1cc(C#N)cc(C)c1NC(=O)c1cc(Br)nn1-c1ncccc1Cl` [cyantraniliprole], in the assay with Phaedon cochleariae (0.16 g/ha), the “Kill rate in % after 2 d” value is listed as 0%. Further, the pest or weed control at 0.16 g/ha with Phaedon cochleariae (0.16 g/ha) and in the assay with Myzus persicae (setting [5]) was 0% in each case.
